Source: patent publication US9643955B2, “2-pyridyloxy-3-nitrile-4-substituted orexin receptor antagonists” (MERCK SHARP & DOHME CORP., priority 2012, dated 2017)

Key:
hOX1R [1] = target: T1, hOX1R (Homo sapiens, UniProt O43613); test: FLIPR Ca2+ Flux Assay, hOX1R; format: cell-based; design: expressed in transfected cells; host or cells: CHO cells; settings: CHO cells expressing orexin-1 receptor; agonist 70 pM Ala-6,12 orexin-A
T1 sequence (O43613 1-425): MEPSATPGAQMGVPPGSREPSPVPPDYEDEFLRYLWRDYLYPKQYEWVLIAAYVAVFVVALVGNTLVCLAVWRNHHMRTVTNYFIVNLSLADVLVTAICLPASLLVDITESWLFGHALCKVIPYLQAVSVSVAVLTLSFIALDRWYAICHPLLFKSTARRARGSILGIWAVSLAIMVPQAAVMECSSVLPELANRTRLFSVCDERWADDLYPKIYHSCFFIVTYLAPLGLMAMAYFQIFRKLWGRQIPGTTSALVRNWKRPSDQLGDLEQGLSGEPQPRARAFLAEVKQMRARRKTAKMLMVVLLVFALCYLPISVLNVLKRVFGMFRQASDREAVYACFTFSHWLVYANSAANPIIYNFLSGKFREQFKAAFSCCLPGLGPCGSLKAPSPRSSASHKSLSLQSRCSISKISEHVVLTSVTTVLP

human orexin-2 receptor = target: T2, human orexin-2 receptor (Homo sapiens, UniProt O43614); test: FLIPR Ca2+ Flux Assay, hOX2R; format: cell-based; settings: CHO cells expressing the human orexin-2 receptor; agonist 70 pM Ala-6,12 orexin-A
T2 construct: expressed in transfected cells; host or cells: CHO cells
T2 sequence (O43614 1-444): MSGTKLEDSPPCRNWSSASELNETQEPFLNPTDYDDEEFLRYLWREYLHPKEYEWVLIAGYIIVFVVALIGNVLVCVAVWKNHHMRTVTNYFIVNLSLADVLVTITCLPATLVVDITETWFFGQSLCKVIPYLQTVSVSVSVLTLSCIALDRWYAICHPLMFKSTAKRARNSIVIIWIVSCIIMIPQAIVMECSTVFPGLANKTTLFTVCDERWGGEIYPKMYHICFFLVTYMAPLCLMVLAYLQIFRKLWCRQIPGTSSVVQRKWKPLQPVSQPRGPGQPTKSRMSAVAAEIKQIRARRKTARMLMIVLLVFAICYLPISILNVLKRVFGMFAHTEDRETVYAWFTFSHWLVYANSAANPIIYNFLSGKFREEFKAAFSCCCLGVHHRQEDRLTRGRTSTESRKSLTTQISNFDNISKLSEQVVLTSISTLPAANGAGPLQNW
Description: The utility of the compounds in accordance with the present invention as orexin receptor OX1R and/or OX2R antagonists may be readily determined without undue experimentation by methodology well known in the art, including the “FLIPR Ca^2+ Flux Assay” (Okumura et al., Biochem. Biophys. Res. Comm. 280:976-981, 2001). In a typical experiment the OX1 and OX2 receptor antagonistic activity of the compounds of the present invention was determined in accordance with the following experimental method. For intracellular calcium measurements, Chinese hamster ovary (CHO) cells expressing the rat orexin-1 receptor or the human orexin-2 receptor, are grown in Iscove's modified DMEM containing 2 mM L-glutamine, […], 1% hypoxanthine-thymidine supplement, 100 U/ml penicillin, 100 μg/ml streptomycin and 10% heat-inactivated fetal calf serum (FCS). The cells are seeded at 20,000 cells/well into Becton-Dickinson black 384-well clear bottom sterile plates coated with poly-D-lysine. All reagents were from GIBCO-Invitrogen Corp. The seeded plates are incubated overnight at 37° C. and 5% CO2. Ala-6,12 human orexin-A as the agonist is prepared as a 1 mM stock solution in 1% bovine serum albumin (BSA) and diluted in assay buffer (HBSS containing 20 mM HEPES, 0.1% BSA and 2.5 mM probenecid, pH7.4) for use in the assay at a final concentration of 70 pM. Test compounds are prepared as 10 mM stock solution in DMSO, then diluted in 384-well plates, first in DMSO, then assay buffer. On the day of the assay, cells are washed 3 times with 100 μl assay buffer and then incubated for 60 min (37° C., 5% CO2) in 60 μl assay buffer containing 1 μM Fluo-4AM ester, 0.02% pluronic acid, and 1% BSA. The dye loading solution is then aspirated and cells are washed 3 times with 100 μl assay buffer. 30 μl of that same buffer is left in each well. Within the Fluorescent Imaging Plate Reader (FLIPR, Molecular Devices), test compounds are added to the plate in a volume of 25 μl, incubated for 5 min and finally 25 μl of agonist is added. Fluorescence is measured for each well at 1 second intervals for 5 minutes and the height of each fluorescence peak is compared to the height of the fluorescence peak induced by 70 pM Ala-6,12 orexin-A with buffer in place of antagonist. For each antagonist, IC50 value (the concentration of compound needed to inhibit 50% of the agonist response) is determined Alternatively, compound potency can be assessed by a radioligand binding assay (described in Bergman et. al. Bioorg. Med. Chem. Lett. 2008, 18, 1425-1430) in which the inhibition constant (Ki) is determined in membranes prepared from CHO cells expressing either the OX1 or OX2 receptor. The intrinsic orexin receptor antagonist activity of a compound which may be used in the present invention may be determined by these assays.

hOX1R [2] = target: T1, hOX1R; test: radioligand binding assay, hOX1R; design: expressed in transfected cells; host or cells: membranes of CHO cells; settings: membranes prepared from CHO cells expressing the OX1 receptor; read-out: hOX1R BIND hKi
Description: (§1) The utility of the compounds in accordance with the present invention as orexin receptor OX1R and/or OX2R antagonists may be readily determined without undue experimentation by methodology well known in the art, including the “FLIPR Ca^2+ Flux Assay” (Okumura et al., Biochem. Biophys. Res. Comm. 280:976-981, 2001). In a typical experiment the OX1 and OX2 receptor antagonistic activity of the compounds of the present invention was determined in accordance with the following experimental method. For intracellular calcium measurements, Chinese hamster ovary (CHO) cells expressing the rat orexin-1 receptor or the human orexin-2 receptor, are grown in Iscove's modified DMEM containing 2 mM L-glutamine, […], 1% hypoxanthine-thymidine supplement, 100 U/ml penicillin, 100 μg/ml streptomycin and 10% heat-inactivated fetal calf serum (FCS). The cells are seeded at 20,000 cells/well into Becton-Dickinson black 384-well clear bottom sterile plates coated with poly-D-lysine. All reagents were from GIBCO-Invitrogen Corp. The seeded plates are incubated overnight at 37° C. and 5% CO2. Ala-6,12 human orexin-A as the agonist is prepared as a 1 mM stock solution in 1% bovine serum albumin (BSA) and diluted in assay buffer (HBSS containing 20 mM HEPES, 0.1% BSA and 2.5 mM probenecid, pH7.4) for use in the assay at a final concentration of 70 pM. Test compounds are prepared as 10 mM stock solution in DMSO, then diluted in 384-well plates, first in DMSO, then assay buffer. On the day of the assay, cells are washed 3 times with 100 μl assay buffer and then incubated for 60 min (37° C., 5% CO2) in 60 μl assay buffer containing 1 μM Fluo-4AM ester, 0.02% pluronic acid, and 1% BSA. The dye loading solution is then aspirated and cells are washed 3 times with 100 μl assay buffer. 30 μl of that same buffer is left in each well. Within the Fluorescent Imaging Plate Reader (FLIPR, Molecular Devices), test compounds are added to the plate in a volume of 25 μl, incubated for 5 min and finally 25 μl of agonist is added. Fluorescence is measured for each well at 1 second intervals for 5 minutes and the height of each fluorescence peak is compared to the height of the fluorescence peak induced by 70 pM Ala-6,12 orexin-A with buffer in place of antagonist. […] The intrinsic orexin receptor antagonist activity of a compound which may be used in the present invention may be determined by these assays.

hOX2R = target: T3, hOX2R (Homo sapiens, UniProt O43614); test: radioligand binding assay, hOX2R; settings: membranes prepared from CHO cells expressing the OX2 receptor; read-out: hOX2R BIND hKi
T3 construct: expressed in transfected cells; host or cells: membranes of CHO cells
T3 sequence (O43614 1-444): T2 sequence (O43614 1-444)
Description: as §1

Structure (SMILES)	IC50 (hOX1R [1]) [nM]	IC50 (human orexin-2 receptor) [nM]	Ki (hOX1R [2]) [nM]	Ki (hOX2R) [nM]
CSc1ccnc(O[C@@H]2CC[C@@H](C)N(C(=O)c3ccccc3-n3nccn3)C2)c1C#N [Example 1, 4-(Methylsulfanyl)-2-{[(3R,6R)-6-methyl-1-{[2-(2H-1,2,3-triazol-2-yl)phenyl]carbonyl}-piperidin-3-yl]oxy}pyridine-3-carbonitrile]	7440	39		
Cc1ccnc(O[C@@H]2CC[C@@H](C)N(C(=O)c3ccccc3-n3nccn3)C2)c1C#N [Example 2, 4-Methyl-2{[(3R,6R)-6-methyl-1-{[2-(2H-1,2,3-triazol-2-yl)phenyl]carbonyl}piperidin-3-yl]oxy}pyridine-3-carbonitrile]	464	9.8		
Cc1ccnc(O[C@@H]2CC[C@@H](C)N(C(=O)c3ccc(Cl)cc3-n3nccn3)C2)c1C#N [Example 3, 2-{[(3R,6R)-1-{[4-Chloro-2(2H-1,2,3-triazol-2-yl)phenyl]carbonyl}-6-methylpiperidin-3-yl]oxy}-4-methylpyridine-3-carbonitrile]	3710	73.6		
Cc1ccnc(O[C@@H]2CC[C@@H](C)N(C(=O)c3cnccc3-n3nccn3)C2)c1C#N [Example 4, 4-methyl-2-{[(3R,6R)-6-methyl-1-{[4-(2H-1,2,3-triazol-2-yl)pyridin-3-yl]carbonyl}piperidin-3-yl]oxy}pyridine-3-carbonitrile]			1290	54
Cc1ccnc(O[C@@H]2CC[C@@H](C)N(C(=O)c3c(F)cccc3-n3nccn3)C2)c1C#N [Example 5, 2-{[(3R,6R)-1-{[2-fluoro-6-(2H-1,2,3-triazol-2-yl)phenyl]carbonyl}-6-methylpiperidin-3-yl]oxy}-4-methylpyridine-3-carbonitrile]			3610	34
COc1cccc(-n2nccn2)c1C(=O)N1C[C@H](Oc2nccc(C)c2C#N)CC[C@H]1C [Example 6, 2-{[(3R,6R)-1-{[2-methoxy-6-(2H-1,2,3-triazol-2-yl)phenyl]carbonyl}-6-methylpiperidin-3-yl]oxy}-4-methylpyridine-3-carbonitrile]	1160	67.6		
Cc1ccnc(O[C@@H]2CC[C@@H](C)N(C(=O)c3cccc(C)c3-n3nccn3)C2)c1C#N [Example 7, 4-methyl-2-{[(3R,6R)-6-methyl-1-{[3-methyl-2-(2H-1,2,3-triazol-2-yl)phenyl]carbonyl}piperidin-3-yl]oxy}pyridine-3-carbonitrile]	457	20.3		
Cc1ccnc(O[C@@H]2CC[C@@H](C)N(C(=O)c3ccc(F)cc3-n3nccn3)C2)c1C#N [Example 8, 2-{[(3R,6R)-1-{[4-fluoro-2-(2H-1,2,3-triazol-2-yl)phenyl]carbonyl}-6-methylpiperidin-3-yl]oxy}-4-methylpyridine-3-carbonitrile]	7390	59.8		

More lines, now with the values ahead:

IC50 (hOX1R [1]) [nM]	IC50 (human orexin-2 receptor) [nM]	Ki (hOX1R [2]) [nM]	Ki (hOX2R) [nM]	Structure (SMILES)
		5660	60	COc1ccc(C(=O)N2C[C@H](Oc3nccc(C)c3C#N)CC[C@H]2C)c(-n2nccn2)c1 [Example 9, 2-{[(3R,6R)-1-{[4-methoxy-2-(2H-1,2,3-triazol-2-yl)phenyl]carbonyl}-6-methylpiperidin-3-yl]oxy}-4-methylpyridine-3-carbonitrile]
3650	42.6			Cc1ccnc(O[C@@H]2CC[C@@H](C)N(C(=O)c3cccc(F)c3-n3nccn3)C2)c1C#N [Example 10, 2-{[(3R,6R)-1-{[3-fluoro-2-(2H-1,2,3-triazol-2-yl)phenyl]carbonyl}-6-methylpiperidin-3-yl]oxy}-4-methylpyridine-3-carbonitrile]
		7	24	Cc1ccc(-n2nccn2)c(C(=O)N2C[C@H](Oc3nccc(C)c3C#N)CC[C@H]2C)c1 [Example 11, 4-methyl-2-{[(3R,6R)-6-methyl-1-{[5-methyl-2-(2H-1,2,3-triazol-2-yl)phenyl]carbonyl}piperidin-3-yl]oxy}pyridine-3-carbonitrile]
10000	280			COc1ccc(C(=O)N2C[C@H](Oc3nccc(C)c3C#N)CC[C@H]2C)c(-n2nccn2)n1 [Example 12, 2-{[(3R,6R)-1-{[6-methoxy-2-(2H-1,2,3-triazol-2-yl)pyridin-3-yl]carbonyl}-6-methylpiperidin-3-yl]oxy}-4-methylpyridine-3-carbonitrile]
